A short description of data set [1]: Cytostatic assay. It is filed as cell-based. The following applies: human, HCV replicon-containing cells (Huh 5-2, HuH6 or Huh 9-13). In general terms: Replicon systems follow genome replication, usually without infectious particles.
The subject of data set [2] is 4′-Azidocytidine^res replicon. The experiment in a line: Anti-HCV assay, 4′-azidocytidine resistant replicon. To be noted: for EC50: Hepatitis C virus, read-out: EC50, 4′-Azidocytidine^res; for fold resistance, 4′-Azidocytidine^res: versus wild-type replicon.
The subject of data set [3] is BILN-2061^res replicon. The experiment in a line: Anti-HCV assay, BILN-2061 resistant replicon. To be noted: for EC50: Hepatitis C virus, read-out: EC50, BILN-2061^res; for fold resistance, BILN-2061^res: versus wild-type replicon.
For data set [4], the system named is 2′-C-MeCyt^res replicon. The data set can be described thus: Anti-HCV assay, 2′-C-MeCyt resistant replicon. The following applies: for EC50: Hepatitis C virus, read-out: EC50, 2′-C-MeCyt^res; for fold resistance, 2′-C-MeCyt^res: versus wild-type replicon.
Data set [5] has as its system HuH6 replicons. The data set can be described thus: Anti-HCV replicon assay in HuH6 cells. The following applies: Hepatitis C virus, HuH-6, read-out: Anti-HCV activity EC50, HuH6.
Data set [6] deals with VX-950^res and BILN-2061^res replicon. The experiment in a line: Anti-HCV assay, VX-950 and BILN-2061 double resistant replicon. The following applies: for EC50: Hepatitis C virus, read-out: EC50, VX-950^res and BILN-2061^res; for fold resistance, VX-950^res and BILN-2061^res: versus wild-type replicon.
Data set [7] has as its system J6/JFH chimeric HCV reporter virus (J6/JFH-Rluc2a-FLAG). The experiment in a line: Antiviral assay with HCVcc virus in Huh-Lunet cells. To be noted: Hepatitis C virus, 72 h, read-out: Anti-HCV activity EC50, J6/JFH. It is filed as cell-based, HCV genotype 2a.
The subject of data set [8] is GSK-4^res replicon. The data set can be described thus: Anti-HCV assay, GSK-4 resistant replicon.
Data set [9] relates to HCV replicon in Huh 9-13 cells. The experiment in a line: HCV replicon clearance-rebound assay. It is filed as cell-based.
The subject of data set [10] is HCV. To be noted: cited from earlier work.

Broadly, the CC50 is the concentration that lowers cell viability or growth by half.

Compound `COc1ccc2c(O[C@@H]3C[C@H]4C(=O)N[C@]5(C(=O)O)C[C@H]5/C=C\CCCCC[C@H](NC(=O)OC5CCCC5)C(=O)N4C3)cc(-c3csc(NC(C)C)n3)nc2c1` [BILN-2061] gave a 50% cytotoxic concentration (CC50) in [1] of at least 22000 nM. Also, the EC50 in data set [2] was found to be 14 ± 8 nM; in data set [3], 1300 ± 470 nM; in [4] it was 40 ± 30 nM; in data set [5], 4 ± 2 nM; in data set [6], 800 ± 80 nM. In [2], the “fold resistance, 4′-Azidocytidine^res” value is reported as “(0.93)”. Besides, the “fold resistance, BILN-2061^res” value in data set [3] was “(130)”. Further, the “fold resistance, 2′-C-MeCyt^res” value in data set [4] is reported as “(4.0)”. Also, the “fold resistance, VX-950^res and BILN-2061^res” value in data set [6] is “(80)”.
Consider `CC(C)(C)NC(=O)N[C@H](C(=O)N1C[C@H]2[C@@H]([C@H]1C(=O)NC(CC1CCC1)C(=O)C(N)=O)C2(C)C)C(C)(C)C` (stereo partly drawn) [SCH 503034, (1R,5S)-N-[3-amino-1-(cyclobutylmethyl)-2,3-dioxopropyl]-3-[2(S)-[[[(1,1-dimethylethyl)amino]carbonyl]amino]-3,3-dimethyl-1-oxobutyl]-6,6-dimethyl-3-azabicyclo[3.1.0]hexan-2(S)-carboxamide], for which the half-maximal cytotoxic concentration (CC50) in [1] was at least 7400 nM. In data set [7], the EC50 came to 340 nM.
`[N-]=[N+]=N[C@]1(CO)O[C@@H](n2ccc(N)nc2=O)[C@H](O)[C@@H]1O` [4′-Azidocytidine, 4′-azidocytidine]: the CC50 in data set [1] was over 33000 nM. Further, in data set [2], the EC50 was at least 16000 nM and the “fold resistance, 4′-Azidocytidine^res” value is “(⩾5.5)”. In [4], the EC50 came out at 1200 ± 430 nM and the “fold resistance, 2′-C-MeCyt^res” value was “(0.41)”. Further, the EC50 in [5] was found to be 7400 ± 3700 nM.
As for `NC(=O)c1ncn([C@@H]2O[C@H](CO)[C@@H](O)[C@H]2O)n1` [Ribavirin], the CC50 in data set [1] is over 33000 nM. In [5], the EC50 was found to be 28000 ± 16000 nM.
`CNC(=O)c1c(-c2ccc(F)cc2)oc2cc(N(CCO)S(C)(=O)=O)c(C3CC3)cc12` [HCV-796] came in with a CC50 in data set [1] of over 33000 nM. The EC50 in data set [7] was under 100 nM; in data set [8] (Hepatitis C virus, read-out: EC50, GSK-4^res) it was 60 ± 30 nM; in data set [5], 10 ± 3 nM. Besides, in [8] (versus wild-type replicon), the “fold resistance, GSK-4^res” value is recorded as “(0.75)”.
The compound `C[C@@]1(O)[C@H](O)[C@@H](CO)O[C@H]1n1ccc(N)nc1=O` [2′-C-MeCyt, 2′-C-Methylcytidine] returned a CC50 in data set [1] of at least 26000 nM. Besides, the EC50 is 3400 ± 1100 nM in data set [2]; 100 ± 20 nM in [7]; 910 ± 1100 nM in [3]; at least 30000 nM in [4]; 1020 ± 440 nM in data set [5]; 1000 ± 700 nM in [6]. Also, the “fold resistance, 4′-Azidocytidine^res” value in data set [2] was “(7.9)”. Moreover, in data set [3], the “fold resistance, BILN-2061^res” value is “(2.1)”. Further, in data set [4], the “fold resistance, 2′-C-MeCyt^res” value is given as “⩾81”. Further, the “clearance of replicon, drug alone” value in [9] (20 × EC50, Huh 9-13) is listed as “failed to achieve clearance”. Further, the “drug resistant replicon in cells surviving rebound conditions” value in data set [9] (after treatment, addition of G418, data not shown) is on record as “did not contain drug resistant replicon”. In addition, in data set [6], the “fold resistance, VX-950^res and BILN-2061^res” value is listed as “(2.3)”.
For `CC1CCC(C(=O)N(c2cc(-c3ccccc3)sc2C(=O)O)C2CCC(O)CC2)CC1` (stereo not shown) [VCH-759], the “tolerability in early clinical studies” value in data set [10] (HCV-infected patients) was “generally well-tolerated”. Besides, the “decrease in HCV RNA” value in [10] (after 10 days of treatment in HCV-infected patients) is recorded as 2.5 log10.
`CCC[C@H](NC(=O)[C@@H]1[C@H]2CCC[C@H]2CN1C(=O)[C@@H](NC(=O)[C@@H](NC(=O)c1cnccn1)C1CCCCC1)C(C)(C)C)C(=O)C(=O)NC1CC1` [VX-950] registered a 50% cytotoxic concentration (CC50) in [1] of at least 24000 nM. The EC50 in data set [2] is 690 ± 150 nM; in data set [7] it was 290 ± 110 nM; in data set [3] it was 310 ± 50 nM; in data set [4] it was 1000 ± 30 nM; in [5], 1400 ± 490 nM; in data set [6] it was 14000 ± 1400 nM. Also, in [2], the “fold resistance, 4′-Azidocytidine^res” value was “(1.2)”. For the same compound, the “fold resistance, BILN-2061^res” value in [3] is “(0.53)”. Further, the “fold resistance, 2′-C-MeCyt^res” value in data set [4] was “(1.7)”. In data set [9] (five times EC50, 3 passages), the “clearance of Huh 9-13 cells from their replicon, drug alone” value is on record as “did not achieve complete clearance”. Further, the “fold resistance, VX-950^res and BILN-2061^res” value in data set [6] is “(24)”.

These data come from article PMC7114863 (Journal of Hepatology, 2009).
